According to ChEMBL document CHEMBL1132434, “Antitumor benzothiazoles. 8. Synthesis, metabolic formation, and biological properties of the C- and N-oxidation products of antitumor 2-(4-aminophenyl)benzothiazoles” (J Med Chem, 1999):

Tested on: MCF7
Assay: In vitro cytotoxicity against MCF-7 human mammary carcinoma cells
Assay type: functional, cell-based

Row | SMILES | IC50 [µM]
1 | Nc1ccc(-c2nc3ccccc3s2)cc1I | < 0.001
2 | Cc1cc(-c2nc3cc(O)ccc3s2)ccc1N | 78.7
3 | Nc1ccc(-c2nc3c(O)cccc3s2)cc1Cl | 61.4
4 | Nc1ccc(-c2nc3ccc(O)cc3s2)cc1Cl | 54.5
5 | CC(=O)Nc1ccc(-c2nc3c(O)cccc3s2)cc1C | 33
6 | Nc1ccc(-c2nc3ccccc3s2)cc1CO | 0.006
7 | Cc1cc(-c2nc3cccc(O)c3s2)ccc1N | 90.8
8 | CC(=O)Nc1ccc(-c2nc3ccc(O)cc3s2)cc1Cl | 71.2
9 | CC(=O)Nc1ccc(-c2nc3ccccc3s2)cc1O | 9
10 | CC(=O)Nc1ccc(-c2nc3cc(O)ccc3s2)cc1C | 72.5
11 | CC(=O)Nc1ccc(-c2nc3cccc(O)c3s2)cc1C | 48.2
12 | CC(=O)Nc1ccc(-c2nc3c(O)cccc3s2)cc1Cl | 56.8
13 | Nc1ccc(-c2nc3c(O)cccc3s2)cc1 | > 100
